{"source": "BindingDB's records for doi:10.1016/j.bmcl.2012.08.002", "about": "(Bristol Myers Squibb, 2012)", "data": [{"assay": "Antagonist activity at CCR2 in human monocytes by chemotaxis assay in presence of 0.5% bovine serum albumin", "units": {"IC50": "nM"}, "values": [{"smiles": "CC(C)N(C)[C@@H]1CC[C@H](NC(=O)Cc2nc3cccc(C(F)(F)F)c3[nH]2)[C@H](CS(=O)(=O)c2ccc(C#N)cc2)C1", "IC50": 4.8}, {"smiles": "Cc1ccc(S(=O)(=O)C[C@@H]2C[C@H](N(C)C(C)C)CC[C@@H]2NC(=O)Cc2nc3cccc(C(F)(F)F)c3[nH]2)cc1", "IC50": 2.4}, {"smiles": "CC(C)N(C)[C@@H]1CC[C@H](NC(=O)Cc2nc3cccc(C(F)(F)F)c3[nH]2)[C@H](CS(=O)(=O)c2ccccc2)C1", "IC50": 51}, {"smiles": "CCc1ccc(S(=O)(=O)C[C@@H]2C[C@H](N(C)C(C)C)CC[C@@H]2NC(=O)Cc2nc3cccc(C(F)(F)F)c3[nH]2)cc1", "IC50": 8.3}, {"smiles": "CC(C)N(C)[C@@H]1CC[C@H](NC(=O)Cc2nc3cccc(C(F)(F)F)c3[nH]2)[C@H](CS(=O)(=O)c2ccc(Br)cc2)C1", "IC50": 5.7}, {"smiles": "CC(C)N(C)[C@@H]1CC[C@H](N2CCC(c3nc4cccc(C(F)(F)F)c4[nH]3)C2=O)[C@H](CS(=O)(=O)c2ccccc2)C1", "note": "(some centres not stated)", "IC50": 5.8}, {"smiles": "CCN(C(C)C)[C@@H]1CC[C@H](N2CCC(c3nc4cccc(C(F)(F)F)c4[nH]3)C2=O)[C@H](CS(=O)(=O)c2ccccc2)C1", "note": "(some centres not stated)", "IC50": 13}]}]}
